Data as given in ChEMBL document CHEMBL1153786, “Cardenolide glycosides of Thevetia peruviana and triterpenoid saponins of Sapindus emarginatus as TRAIL resistance-overcoming compounds” (2009).
Activity calls are given as the source filed them. The rule behind the calls is not given here.

Experiments:
Type in all cases: functional
AGS [1] = test: Cytotoxicity against human TRAIL-resistant AGS cells after 24 hrs by FMCA in presence of TRAIL
AGS [2] = test: Cytotoxicity against human TRAIL-resistant AGS cells at 27.1 nM after 24 hrs by FMCA in presence of TRAIL
AGS [3] = test: Cytotoxicity against human TRAIL-resistant AGS cells at 29.2 nM after 24 hrs by FMCA in presence of TRAIL
AGS [4] = test: Cytotoxicity against human TRAIL-resistant AGS cells at 29.2 nM after 24 hrs by FMCA in absence of TRAIL
AGS [5] = test: Induction of DR4 mRNA expression in human TRAIL-resistant AGS cells at 500 nM by reat-time RT-PCR analysis relative to GADPH
AGS [6] = test: Induction of DR5 mRNA expression in human TRAIL-resistant AGS cells at 500 nM by reat-time RT-PCR analysis relative to GADPH
AGS [7] = test: Induction of DR5 mRNA expression in human TRAIL-resistant AGS cells at 125 nM by reat-time RT-PCR analysis relative to GADPH
AGS [8] = test: Cytotoxicity against human TRAIL-resistant AGS cells at 125 nM after 24 hrs by FMCA in presence of TRAIL
AGS [9] = test: Induction of DR4 mRNA expression in human TRAIL-resistant AGS cells at 125 nM by reat-time RT-PCR analysis relative to GADPH
AGS [10] = test: Cytotoxicity against human TRAIL-resistant AGS cells at 125 nM after 24 hrs by FMCA in absence of TRAIL
AGS [11] = test: Induction of DR4 mRNA expression in human TRAIL-resistant AGS cells at 250 nM by reat-time RT-PCR analysis relative to GADPH
AGS [12] = test: Induction of DR5 mRNA expression in human TRAIL-resistant AGS cells at 250 nM by reat-time RT-PCR analysis relative to GADPH

Q: What does the source list for CC(=O)O[C@H]1[C@H](O[C@@H]2[C@@H](O)[C@H](C)O[C@@H](O[C@H]3[C@H](O[C@H]4CC[C@@]5(C)[C@@H](CC[C@]6(C)[C@@H]5CC=C5[C@@H]7CC(C)(C)CCC7(C(=O)O)CC[C@]56C)[C@]4(C)CO)OC[C@H](O)[C@@H]3O)[C@@H]2O)OC[C@@H](O)[C@@H]1O (stereo partly specified)?
A: Activity (AGS [1]): Active; Activity (AGS [2]): 45%

Q: Which Activity (AGS [1]) does the source give for CC(=O)O[C@@H]1CO[C@@H](O[C@@H]2[C@@H](O)[C@H](C)O[C@@H](O[C@H]3[C@H](O[C@H]4CC[C@@]5(C)[C@@H](CC[C@]6(C)[C@@H]5CC=C5[C@@H]7CC(C)(C)CCC7(C(=O)O)CC[C@]56C)[C@]4(C)CO)OC[C@H](O)[C@@H]3O)[C@@H]2O)[C@H](O)[C@H]1O (stereo partly specified) here?
A: The Activity was “Active”.

Q: For CC(=O)O[C@@H]1[C@@H](O)[C@H](O[C@@H]2[C@@H](O)[C@H](C)O[C@@H](O[C@H]3[C@H](O[C@H]4CC[C@@]5(C)[C@@H](CC[C@]6(C)[C@@H]5CC=C5[C@@H]7CC(C)(C)CCC7(C(=O)O)CC[C@]56C)[C@]4(C)CO)OC[C@H](O)[C@@H]3O)[C@@H]2O)OC[C@H]1OC(C)=O (stereo partly specified), which Activity (AGS [1]) is on record?
A: The Activity was “Active”.

Q: How did the Activity (AGS [1]) turn out when CC(=O)O[C@H]1[C@H](O[C@@H]2[C@@H](O)[C@H](C)O[C@@H](O[C@H]3[C@H](O[C@H]4CC[C@@]5(C)[C@@H](CC[C@]6(C)[C@@H]5CC=C5[C@@H]7CC(C)(C)CCC7(C(=O)O)CC[C@]56C)[C@]4(C)CO)OC[C@H](O)[C@@H]3O)[C@@H]2O)OC[C@@H](OC(C)=O)[C@@H]1O (stereo partly specified) was run?
A: The Activity was “Active”.

Q: O=c1cc(-c2ccc(O)c(O)c2)oc2cc(O)cc(O)c12 [LUTEOLIN] was tested. Which Activity (AGS [1]) did it give?
A: The Activity was 70%.

Q: How did the Activity (AGS [3]) turn out when CO[C@H]1[C@H](O)[C@H](O[C@H]2CC[C@@]3(C)[C@H](CC[C@@H]4[C@@H]3CC[C@]3(C)[C@@H](C5=CC(=O)OC5)CC[C@]43O)C2)O[C@@H](C)[C@@H]1O [NERIIFOLIN] was run?
A: Its Activity is 36%.

Q: And the Activity (AGS [4])?
A: The Activity was 79%.

Q: CO[C@H]1[C@H](O)[C@H](O[C@H]2CC[C@@]3(C)[C@@H](CC[C@@H]4[C@@H]3CC[C@]3(C)[C@@H](C5=CC(=O)OC5)CC[C@]43O)C2)O[C@@H](C)[C@@H]1O [THEVEFOLIN] was tested. Which “fold change (FC)” value (AGS [5]) did it give?
A: Its value is 3.6.

Q: And the “fold change (FC)” value (AGS [6])?
A: Its value is 1.8.

Q: And the “fold change (FC)” value (AGS [7])?
A: The value was 1.2.

Q: And the Activity (AGS [8])?
A: Its Activity is 46%.

Q: And the “fold change (FC)” value (AGS [9])?
A: The value was 1.8.

Q: And the Activity (AGS [10])?
A: Its Activity is 65%.

Q: And the “fold change (FC)” value (AGS [11])?
A: Its value is 3.3.

Q: What about the “fold change (FC)” value (AGS [12]) of the same compound?
A: Its value is 1.6.
